# Publication PMC4809247 (Journal of medicinal chemistry, 2015)
# Tests used:
# rat mGlu5 = rat mGlu5 (Rattus norvegicus, UniProt P31424); assay: Calcium mobilization mGlu5 assay; type: cell-based; conditions: for mGlu5 pEC50 (± SEM): calcium mobilization, average of n ≥ 3 (n = 2 where marked)
# rat mGlu3 = rat mGlu3 (Rattus norvegicus, UniProt P31422); conditions: calcium mobilization; average of n ≥ 3
# [1] = Intrinsic clearance in rat liver microsomes; type: in vitro ADME; conditions: predicted hepatic clearance based on intrinsic clearance in rat liver microsomes
# Chain of rat mGlu3 (P31422 23-879): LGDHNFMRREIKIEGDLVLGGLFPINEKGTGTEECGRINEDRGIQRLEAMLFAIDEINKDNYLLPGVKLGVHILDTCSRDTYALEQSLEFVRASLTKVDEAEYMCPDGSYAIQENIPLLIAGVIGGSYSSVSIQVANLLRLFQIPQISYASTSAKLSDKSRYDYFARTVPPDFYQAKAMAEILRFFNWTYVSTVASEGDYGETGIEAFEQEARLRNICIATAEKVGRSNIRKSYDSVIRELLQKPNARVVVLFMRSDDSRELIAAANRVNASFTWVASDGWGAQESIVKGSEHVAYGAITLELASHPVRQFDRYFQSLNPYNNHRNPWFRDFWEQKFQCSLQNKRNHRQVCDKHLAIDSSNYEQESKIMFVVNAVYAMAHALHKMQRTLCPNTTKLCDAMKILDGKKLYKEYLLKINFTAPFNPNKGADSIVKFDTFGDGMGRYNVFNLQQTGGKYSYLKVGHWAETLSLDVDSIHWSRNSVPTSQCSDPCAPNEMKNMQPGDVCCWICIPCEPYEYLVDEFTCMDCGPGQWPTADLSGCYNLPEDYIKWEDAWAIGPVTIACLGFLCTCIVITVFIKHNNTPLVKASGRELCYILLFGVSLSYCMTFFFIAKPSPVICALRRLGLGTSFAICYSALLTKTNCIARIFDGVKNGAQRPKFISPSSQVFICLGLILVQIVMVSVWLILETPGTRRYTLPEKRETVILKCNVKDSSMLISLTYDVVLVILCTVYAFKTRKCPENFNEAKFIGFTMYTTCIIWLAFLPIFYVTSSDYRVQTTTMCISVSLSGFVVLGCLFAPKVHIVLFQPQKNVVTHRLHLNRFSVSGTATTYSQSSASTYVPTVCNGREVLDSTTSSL
# Chain of rat mGlu5 (P31424 21-1203): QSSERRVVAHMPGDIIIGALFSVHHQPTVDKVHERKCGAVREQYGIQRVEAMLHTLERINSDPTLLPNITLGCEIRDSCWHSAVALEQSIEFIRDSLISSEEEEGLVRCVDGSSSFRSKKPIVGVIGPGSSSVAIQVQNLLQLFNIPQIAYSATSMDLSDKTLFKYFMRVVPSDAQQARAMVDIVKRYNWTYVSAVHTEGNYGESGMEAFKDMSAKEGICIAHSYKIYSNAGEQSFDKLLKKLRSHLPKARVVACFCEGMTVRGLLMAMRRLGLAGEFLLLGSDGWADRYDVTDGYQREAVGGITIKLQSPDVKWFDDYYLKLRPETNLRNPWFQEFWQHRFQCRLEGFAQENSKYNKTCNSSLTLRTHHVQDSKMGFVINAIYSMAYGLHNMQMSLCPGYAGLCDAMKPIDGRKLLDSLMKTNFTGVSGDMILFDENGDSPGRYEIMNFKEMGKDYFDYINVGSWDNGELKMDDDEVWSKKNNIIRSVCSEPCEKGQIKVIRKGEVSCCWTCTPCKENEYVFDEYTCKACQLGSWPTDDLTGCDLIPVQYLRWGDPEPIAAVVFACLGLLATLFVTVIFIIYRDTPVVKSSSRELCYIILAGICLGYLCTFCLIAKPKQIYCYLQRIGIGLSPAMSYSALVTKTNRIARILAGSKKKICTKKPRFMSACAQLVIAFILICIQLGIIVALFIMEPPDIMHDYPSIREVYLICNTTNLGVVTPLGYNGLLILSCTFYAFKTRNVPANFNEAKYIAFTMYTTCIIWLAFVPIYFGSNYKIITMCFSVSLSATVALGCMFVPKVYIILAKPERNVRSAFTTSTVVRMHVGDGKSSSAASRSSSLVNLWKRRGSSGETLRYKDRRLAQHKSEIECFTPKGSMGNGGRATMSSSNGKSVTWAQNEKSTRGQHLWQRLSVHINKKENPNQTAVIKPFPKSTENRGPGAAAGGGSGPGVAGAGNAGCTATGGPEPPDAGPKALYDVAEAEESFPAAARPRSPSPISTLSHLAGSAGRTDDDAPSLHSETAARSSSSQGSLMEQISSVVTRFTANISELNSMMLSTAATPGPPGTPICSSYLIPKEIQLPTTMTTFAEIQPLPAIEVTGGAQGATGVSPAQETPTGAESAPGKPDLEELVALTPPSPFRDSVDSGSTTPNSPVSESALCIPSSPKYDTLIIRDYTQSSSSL
smiles,measurement,setting,value
C[C@@H]1CN(c2ccc(F)cc2)C(=O)c2cc(COc3ccccc3)nn21 [Compound 18],fold preference for mGlu5 vs mGlu3 activity,rat mGlu5,~6 fold
same,mGlu5 pEC50 (± SEM),rat mGlu5,7.34 ± 0.02
same,mGlu3 pIC50 (± SEM),rat mGlu3,6.57 ± 0.15
C[C@@H]1CN(c2ccc(F)cc2)C(=O)c2cc(COc3ccccc3F)nn21 [Compound 22],mGlu5 pEC50 (± SEM),rat mGlu5,6.71 ± 0.04
same,mGlu3 pIC50 (± SEM),rat mGlu3,6.28 ± 0.20
C[C@@H]1CN(c2ccc(F)cc2)C(=O)c2cc(COc3cccc(F)c3)nn21 [Compound 23],mGlu5 pEC50 (± SEM),rat mGlu5,7.14 ± 0.02
same,mGlu3 pIC50 (± SEM),rat mGlu3,6.11 ± 0.03
C[C@@H]1CN(c2ccc(F)cc2)C(=O)c2cc(COc3ccc(F)cc3F)nn21 [Compound 25],mGlu5 pEC50 (± SEM),rat mGlu5,6.51 ± 0.05
same,mGlu3 pIC50 (± SEM),rat mGlu3,6.38 ± 0.22
Cc1ccccc1OCc1cc2n(n1)[C@H](C)CN(c1ccc(F)cc1)C2=O [Compound 26],mGlu5 pEC50 (± SEM),rat mGlu5,5.83 ± 0.04
Cc1ccc(OCc2cc3n(n2)[C@H](C)CN(c2ccc(F)cc2)C3=O)cc1 [Compound 28],mGlu5 pEC50 (± SEM),rat mGlu5,5.97 ± 0.04
same,mGlu3 pIC50 (± SEM),rat mGlu3,5.92 ± 0.02
C[C@@H]1CN(c2ccc(F)cc2)C(=O)c2cc(COc3ccccc3Cl)nn21 [Compound 29],mGlu3 pIC50 (± SEM),rat mGlu3,6.27 ± 0.18
COc1ccccc1OCc1cc2n(n1)[C@H](C)CN(c1ccc(F)cc1)C2=O [Compound 32],mGlu3 pIC50 (± SEM),rat mGlu3,5.59 ± 0.18
COc1cccc(OCc2cc3n(n2)[C@H](C)CN(c2ccc(F)cc2)C3=O)c1 [Compound 33],mGlu5 pEC50 (± SEM),rat mGlu5,5.74 ± 0.04
COc1ccc(OCc2cc3n(n2)[C@H](C)CN(c2ccc(F)cc2)C3=O)cc1 [Compound 34],mGlu5 pEC50 (± SEM),rat mGlu5,5.87 ± 0.16
same,mGlu3 pIC50 (± SEM),rat mGlu3,5.98 ± 0.02
C[C@@H]1CN(c2ccc(F)cc2)C(=O)c2cc(COc3ccc(C(F)(F)F)cc3)nn21 [Compound 35],mGlu5 pEC50 (± SEM),rat mGlu5,<4.5
same,mGlu3 pIC50 (± SEM),rat mGlu3,5.73 ± 0.01
CCc1ccc(OCc2cc3n(n2)[C@H](C)CN(c2ccc(F)cc2)C3=O)cc1 [Compound 36],mGlu5 pEC50 (± SEM),rat mGlu5,5.49 ± 0.03
C[C@@H]1CN(c2ccc(F)cc2)C(=O)c2cc(COc3ccc(C#N)cc3)nn21 [Compound 37],mGlu5 pEC50 (± SEM),rat mGlu5,5.71 ± 0.06
same,mGlu3 pIC50 (± SEM),rat mGlu3,6.11 ± 0.12
CCOc1ccc(OCc2cc3n(n2)[C@H](C)CN(c2ccc(F)cc2)C3=O)cc1 [Compound 38],mGlu5: no activity up to the highest concentration tested,rat mGlu5,> 30 µM
same,mGlu5 pEC50 (± SEM),rat mGlu5,<4.5
same,mGlu3 pIC50 (± SEM),rat mGlu3,5.94 ± 0.06
C[C@@H]1CN(c2ccc(F)cc2)C(=O)c2cc(COc3ccc(OC(F)(F)F)cc3)nn21 [Compound 39],mGlu5: no activity up to the highest concentration tested,rat mGlu5,> 30 µM
same,mGlu5 pEC50 (± SEM),rat mGlu5,<4.5
same,mGlu3 pIC50 (± SEM),rat mGlu3,5.39 ± 0.04
C[C@@H]1CN(c2ccc(F)cc2)C(=O)c2cc(COc3ncccc3F)nn21 [Compound 41],mGlu3 pIC50 (± SEM),rat mGlu3,5.96 ± 0.02
C[C@@H]1CN(c2ccc(F)cc2)C(=O)c2cc(COc3ncccc3C(F)(F)F)nn21 [Compound 42],mGlu5: no activity up to the highest concentration tested,rat mGlu5,> 30 µM
same,mGlu5 pEC50 (± SEM),rat mGlu5,<4.5
COc1cccnc1OCc1cc2n(n1)[C@H](C)CN(c1ccc(F)cc1)C2=O [Compound 43],mGlu5: no activity up to the highest concentration tested,rat mGlu5,> 30 µM
same,mGlu5 pEC50 (± SEM),rat mGlu5,<4.5
Cc1ccnc(OCc2cc3n(n2)[C@H](C)CN(c2ccc(F)cc2)C3=O)c1 [Compound 44],mGlu3 pIC50 (± SEM),rat mGlu3,5.68 ± 0.01
C[C@@H]1CN(c2ccc(F)cc2)C(=O)c2cc(COc3cc(C(F)(F)F)ccn3)nn21 [Compound 45],mGlu3 pIC50 (± SEM),rat mGlu3,5.78 ± 0.01
COc1ccnc(OCc2cc3n(n2)[C@H](C)CN(c2ccc(F)cc2)C3=O)c1 [Compound 46],mGlu3 pIC50 (± SEM),rat mGlu3,5.43 ± 0.00
C[C@@H]1CN(c2ccc(F)cc2)C(=O)c2cc(COc3ccc(F)cn3)nn21 [Compound 47],mGlu3 pIC50 (± SEM),rat mGlu3,6.27 ± 0.02
Cc1cccc(OCc2cc3n(n2)[C@H](C)CN(c2ccc(F)cc2)C3=O)n1 [Compound 49],mGlu3 pIC50 (± SEM),rat mGlu3,5.62 ± 0.02
C[C@@H]1CN(c2ccc(F)cc2)C(=O)c2cc(COc3cccc(C(F)(F)F)n3)nn21 [Compound 50],mGlu5: no activity up to the highest concentration tested,rat mGlu5,> 30 µM
same,mGlu5 pEC50 (± SEM),rat mGlu5,<4.5
same,mGlu3 pIC50 (± SEM),rat mGlu3,5.63 ± 0.02
C[C@@H]1CN(c2ccccc2F)C(=O)c2cc(COc3ccc(F)cn3)nn21 [Compound 55],rat CLhep,[1],64.7 mL/min/kg
C[C@@H]1CN(c2cccc(F)c2)C(=O)c2cc(COc3ccc(F)cn3)nn21 [Compound 56],mGlu3 pIC50 (± SEM),rat mGlu3,6.72 ± 0.08
same,rat CLhep,[1],53.0 mL/min/kg
C[C@@H]1CN(c2ccccc2Cl)C(=O)c2cc(COc3ccc(F)cn3)nn21 [Compound 57],mGlu3 pIC50 (± SEM),rat mGlu3,6.85 ± 0.16
same,rat CLhep,[1],66.5 mL/min/kg
C[C@@H]1CN(c2cccc(Cl)c2)C(=O)c2cc(COc3ccc(F)cn3)nn21 [Compound 58],rat CLhep,[1],51.9 mL/min/kg
C[C@@H]1CN(c2ccc(Cl)cc2)C(=O)c2cc(COc3ccc(F)cn3)nn21 [Compound 59],mGlu3 pIC50 (± SEM),rat mGlu3,6.71 ± 0.13
Cc1cccc(N2C[C@@H](C)n3nc(COc4ccc(F)cn4)cc3C2=O)c1 [Compound 61],mGlu3 pIC50 (± SEM),rat mGlu3,6.67 ± 0.15
same,rat CLhep,[1],58.4 mL/min/kg
COc1cccc(N2C[C@@H](C)n3nc(COc4ccc(F)cn4)cc3C2=O)c1 [Compound 64],mGlu3 pIC50 (± SEM),rat mGlu3,6.70 ± 0.06
COc1ccc(N2C[C@@H](C)n3nc(COc4ccc(F)cn4)cc3C2=O)cc1 [Compound 65],mGlu3 pIC50 (± SEM),rat mGlu3,6.49 ± 0.10
C[C@@H]1CN(c2cccc(F)c2F)C(=O)c2cc(COc3ccc(F)cn3)nn21 [Compound 66],mGlu3 pIC50 (± SEM),rat mGlu3,6.73 ± 0.16
same,rat CLhep,[1],63.6 mL/min/kg
C[C@@H]1CN(c2cc(F)ccc2F)C(=O)c2cc(COc3ccc(F)cn3)nn21 [Compound 67],rat CLhep,[1],49.6 mL/min/kg
C[C@@H]1CN(c2c(F)cccc2F)C(=O)c2cc(COc3ccc(F)cn3)nn21 [Compound 68],rat CLhep,[1],64.6 mL/min/kg
C[C@@H]1CN(c2cccnc2)C(=O)c2cc(COc3ccc(F)cn3)nn21 [Compound 70],mGlu3 pIC50 (± SEM),rat mGlu3,6.36 ± 0.13
C[C@@H]1CN(c2ccncc2)C(=O)c2cc(COc3ccc(F)cn3)nn21 [Compound 71],mGlu5 pEC50 (± SEM),rat mGlu5,<4.5
same,mGlu3 pIC50 (± SEM),rat mGlu3,6.05 ± 0.04
C[C@@H]1CN(c2ccc(F)cn2)C(=O)c2cc(COc3ccc(F)cn3)nn21 [Compound 72],mGlu3 pIC50 (± SEM),rat mGlu3,6.46 ± 0.07
C[C@@H]1CN(c2ccccc2F)C(=O)c2cc(COc3ccc(Cl)cn3)nn21 [Compound 80],mGlu3 pIC50 (± SEM),rat mGlu3,6.65 ± 0.04
C[C@@H]1CN(c2cccc(F)c2)C(=O)c2cc(COc3ccc(Cl)cn3)nn21 [Compound 81],mGlu3 pIC50 (± SEM),rat mGlu3,6.69 ± 0.04
C[C@@H]1CN(c2ccccc2Cl)C(=O)c2cc(COc3ccc(Cl)cn3)nn21 [Compound 82],mGlu3 pIC50 (± SEM),rat mGlu3,6.48 ± 0.08
C[C@@H]1CN(c2cccc(Cl)c2)C(=O)c2cc(COc3ccc(Cl)cn3)nn21 [Compound 83],mGlu3 pIC50 (± SEM),rat mGlu3,6.25 ± 0.07
C[C@@H]1CN(c2ccc(Cl)cc2)C(=O)c2cc(COc3ccc(Cl)cn3)nn21 [Compound 84],mGlu3 pIC50 (± SEM),rat mGlu3,5.91 ± 0.25
Cc1ccccc1N1C[C@@H](C)n2nc(COc3ccc(Cl)cn3)cc2C1=O [Compound 85],mGlu3 pIC50 (± SEM),rat mGlu3,6.24 ± 0.18
Cc1cccc(N2C[C@@H](C)n3nc(COc4ccc(Cl)cn4)cc3C2=O)c1 [Compound 86],mGlu3 pIC50 (± SEM),rat mGlu3,6.41 ± 0.05
Cc1ccc(N2C[C@@H](C)n3nc(COc4ccc(Cl)cn4)cc3C2=O)cc1 [Compound 87],mGlu3 pIC50 (± SEM),rat mGlu3,6.39 ± 0.21
COc1cccc(N2C[C@@H](C)n3nc(COc4ccc(Cl)cn4)cc3C2=O)c1 [Compound 89],mGlu3 pIC50 (± SEM),rat mGlu3,6.50 ± 0.05
C[C@@H]1CN(c2ccccc2C#N)C(=O)c2cc(COc3ccc(Cl)cn3)nn21 [Compound 91],mGlu3 pIC50 (± SEM),rat mGlu3,6.37 ± 0.05
C[C@@H]1CN(c2cccc(C#N)c2)C(=O)c2cc(COc3ccc(Cl)cn3)nn21 [Compound 92],mGlu3 pIC50 (± SEM),rat mGlu3,6.08 ± 0.26
C[C@@H]1CN(c2ccc(C#N)cc2)C(=O)c2cc(COc3ccc(Cl)cn3)nn21 [Compound 93],mGlu3 pIC50 (± SEM),rat mGlu3,6.27 ± 0.05
C[C@@H]1CN(c2ccc(F)cc2F)C(=O)c2cc(COc3ccc(Cl)cn3)nn21 [Compound 95],mGlu3 pIC50 (± SEM),rat mGlu3,6.55 ± 0.08
C[C@@H]1CN(c2cc(F)cc(F)c2)C(=O)c2cc(COc3ccc(Cl)cn3)nn21 [Compound 97],mGlu3 pIC50 (± SEM),rat mGlu3,6.38 ± 0.07
C[C@@H]1CN(c2cc(F)ccc2C#N)C(=O)c2cc(COc3ccc(Cl)cn3)nn21 [Compound 98],mGlu5: no activity up to the highest concentration tested,rat mGlu5,> 30 µM
same,mGlu5 pEC50 (± SEM),rat mGlu5,<4.5
same,mGlu3 pIC50 (± SEM),rat mGlu3,6.28 ± 0.06
C[C@@H]1CN(c2ccccn2)C(=O)c2cc(COc3ccc(Cl)cn3)nn21 [Compound 100],mGlu5 pEC50 (± SEM),rat mGlu5,<4.5
same,mGlu3 pIC50 (± SEM),rat mGlu3,6.48 ± 0.07
same,rat CLhep,[1],69.5 mL/min/kg
C[C@@H]1CN(c2cccnc2)C(=O)c2cc(COc3ccc(Cl)cn3)nn21 [Compound 101],mGlu5 pEC50 (± SEM),rat mGlu5,<4.5
same,mGlu3 pIC50 (± SEM),rat mGlu3,6.22 ± 0.10
same,rat CLhep,[1],42.0 mL/min/kg
C[C@@H]1CN(c2ncccc2F)C(=O)c2cc(COc3ccc(Cl)cn3)nn21 [Compound 102],mGlu3 pIC50 (± SEM),rat mGlu3,6.44 ± 0.03
C[C@@H]1CN(c2ncccc2C#N)C(=O)c2cc(COc3ccc(Cl)cn3)nn21 [Compound 103],mGlu5 pEC50 (± SEM),rat mGlu5,<4.5
C[C@@H]1CN(c2ccc(F)cn2)C(=O)c2cc(COc3ccc(Cl)cn3)nn21 [Compound 104],mGlu3 pIC50 (± SEM),rat mGlu3,6.59 ± 0.09
C[C@@H]1CN(c2cccc(F)n2)C(=O)c2cc(COc3ccc(Cl)cn3)nn21 [Compound 105],mGlu3 pIC50 (± SEM),rat mGlu3,6.53 ± 0.08
C[C@@H]1CN(c2cnccc2F)C(=O)c2cc(COc3ccc(Cl)cn3)nn21 [Compound 107],mGlu5 pEC50 (± SEM),rat mGlu5,<4.5
same,mGlu3 pIC50 (± SEM),rat mGlu3,6.32 ± 0.03
same,rat CLhep,[1],36.0 mL/min/kg
C[C@@H]1CN(c2cncc(F)c2)C(=O)c2cc(COc3ccc(Cl)cn3)nn21 [Compound 108],mGlu5 pEC50 (± SEM),rat mGlu5,<4.5
same,rat CLhep,[1],26.6 mL/min/kg
C[C@@H]1CN(c2cncc(C#N)c2)C(=O)c2cc(COc3ccc(Cl)cn3)nn21 [Compound 109],mGlu5 pEC50 (± SEM),rat mGlu5,<4.5
same,mGlu3 pIC50 (± SEM),rat mGlu3,6.22 ± 0.01
same,rat CLhep,[1],22.8 mL/min/kg
